Here are results for 7 compounds from patent US9193728B2, “Fused tetracyclic pyrido [4,3-B] indole and pyrido [3,4-B] indole derivatives and methods of use” (Medivation Technologies, Inc., priority 2010, dated 2015).

The structures appear in SMILES notation.

Assay [1] concerns the target T1, rat adrenergic α1A receptor (Rattus norvegicus, UniProt P43140).
T1 construct: rat adrenergic α1A receptor obtained from Wistar Rat submaxillary glands; from tissue; host or cells: Wistar rat submaxillary glands
T1 sequence (P43140 1-466): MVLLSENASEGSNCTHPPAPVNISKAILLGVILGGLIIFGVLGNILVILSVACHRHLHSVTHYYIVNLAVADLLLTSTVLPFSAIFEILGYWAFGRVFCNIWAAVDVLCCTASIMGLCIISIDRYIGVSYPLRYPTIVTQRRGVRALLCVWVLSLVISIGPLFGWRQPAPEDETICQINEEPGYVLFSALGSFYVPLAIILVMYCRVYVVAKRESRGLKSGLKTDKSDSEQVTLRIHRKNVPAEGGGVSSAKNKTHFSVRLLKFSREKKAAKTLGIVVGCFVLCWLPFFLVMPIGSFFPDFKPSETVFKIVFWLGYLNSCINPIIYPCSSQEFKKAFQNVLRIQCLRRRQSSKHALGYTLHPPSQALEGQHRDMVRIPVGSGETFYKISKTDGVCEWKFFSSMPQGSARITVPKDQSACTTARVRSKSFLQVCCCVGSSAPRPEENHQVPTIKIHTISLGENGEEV
The assay is described as follows: Adrenergic α1A radioligand binding ([3H]Prazosin). The following applies: compound at 0.1 μM; for inhibition at 0.1 µM: read-out: Adrenergic (0.1 μM) a1A, percentage inhibition of ligand binding. How it is done: To evaluate in radioligand binding assays the activity of compounds of the invention, rat adrenergic α1A receptor obtained from Wistar Rat submaxillary glands (Michel, A. et al, Br. J. Pharmacol. 98:883, 1989) in a modified Tris-HCl buffer (50 mM Tris-HCl buffer, pH 7.4, 0.5 mM EDTA) was used. Compounds of the invention were incubated with 0.25 nM [^3H]Prazosin for 60 min. at 25° C. Non-specific binding was estimated in the presence of 10 μM phentolamine. Receptor proteins were filtered and washed, the filters were then counted to determine [^3H]Prazosin specifically bound. Compounds of the invention were screened at 1 μM or lower, using 1% DMSO as vehicle. Biochemical assay results are presented as the percent inhibition of specific binding in Table 3.

The target of assay [2] is T2, human recombinant adrenergic α2C receptor (Homo sapiens, UniProt P18825).
T2 construct: expressed in transfected cells; host or cells: insect Sf9 cells
T2 sequence (P18825 1-462): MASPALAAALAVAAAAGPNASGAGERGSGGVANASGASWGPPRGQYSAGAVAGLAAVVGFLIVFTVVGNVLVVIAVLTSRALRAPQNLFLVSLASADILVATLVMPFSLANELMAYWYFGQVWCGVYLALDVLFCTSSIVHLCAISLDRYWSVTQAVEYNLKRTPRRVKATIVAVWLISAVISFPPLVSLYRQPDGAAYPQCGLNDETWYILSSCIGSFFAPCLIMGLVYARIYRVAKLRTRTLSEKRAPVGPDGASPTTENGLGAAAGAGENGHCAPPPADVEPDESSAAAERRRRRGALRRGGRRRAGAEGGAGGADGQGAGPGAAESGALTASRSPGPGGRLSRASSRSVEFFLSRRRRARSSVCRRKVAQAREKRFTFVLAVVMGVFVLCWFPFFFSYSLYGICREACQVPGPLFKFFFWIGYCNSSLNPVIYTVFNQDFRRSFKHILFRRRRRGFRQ
Description: Adrenergic α2C radioligand binding ([3H]MK-912). The following applies: compound at 0.1 μM; for inhibition at 0.1 µM: read-out: Adrenergic (0.1 μM) a2C, percentage inhibition of ligand binding. How it is done:
To evaluate in radioligand binding assays the activity of compounds of the invention, human recombinant adrenergic α2C receptor expressed in insect Sf9 cells (Uhlen, S. et al, J. Pharmacol. Exp. Ther. 271:1558, 1994) in a modified Tris-HCl buffer (50 mM Tris-HCl, pH 7.4, 12.5 mM MgCl2, 2 mM EDTA) was used. Compounds of the invention were incubated with 1 nM [^3H]MK-912 for 60 min. at 25° C. Non-specific binding was estimated in the presence of 10 μM WB-4101. Receptor proteins were filtered and washed, the filters were then counted to determine [^3H]MK-912 specifically bound. Compounds were screened at 1 μM or lower, using 1% DMSO as vehicle. Biochemical assay results are presented as the percent inhibition of specific binding in Table 3.

Assay [3] has as its target T3, human recombinant dopamine D2L receptor (Homo sapiens, UniProt P14416).
T3 construct: expressed in transfected cells; host or cells: CHO
The assay is described as follows: Dopamine D2L radioligand binding ([3H]Spiperone). The following applies: compound at 1 μM; for inhibition at 1 µM: read-out: Dopamine (1 μM) D2L, percentage inhibition of ligand binding. How it is done:
To evaluate in radioligand binding assays the activity of compounds of the invention, human recombinant dopamine D2L receptor expressed in Chinese hamster ovary (CHO) cells (Grandy, D. et al, Proc. Natl. Acad. Sci. USA. 86:9762, 1989; Hayes, G. et al, Mol. Endocrinol. 6:920, 1992) in a modified Tris-HCl buffer (50 mM Tris-HCl, pH 7.4, 1.4 mM Ascorbic Acid, 0.001% BSA, 150 mM NaCl) was used. Compounds of the invention were incubated with 0.16 nM [^3H]Spiperone for 120 min. at 25° C. Non-specific binding was estimated in the presence of 10 μM Haloperidol. Receptor proteins were filtered and washed, the filters were then counted to determine [^3H]Spiperone specifically bound. Compounds were screened at 1 μM or lower, using 1% DMSO as vehicle. Biochemical assay results are presented as the percent inhibition of specific binding in Table 3.

For assay [4], the target named is T4, human recombinant serotonin (5-Hydroxytryptamine) 5-HT7 receptor (Homo sapiens, UniProt P34969).
T4 construct: expressed in transfected cells; host or cells: CHO
Description: Serotonin 5-HT7 radioligand binding ([3H]LSD). The conditions noted are these: for inhibition at 0.1 µM / Serotonin (0.1 μM) 5-HT7, percentage inhibition of ligand binding: compound at 0.1 μM; for inhibition at 0.1 µM: read-out: Serotonin (0.1 μM) 5-HT7, percentage inhibition of ligand binding. The procedure: To evaluate in radioligand binding assays the activity of compounds of the invention, human recombinant serotonin (5-Hydroxytryptamine) 5-HT7 receptor expressed in Chinese hamster ovary (CHO) cells (Roth, B. et al, J. Pharmacol. Exp. Ther. 268:1403, 1994; Shen, Y. et al, J. Biol. Chem. 268:18200, 1993) in a modified Tris-HCl buffer (50 mM Tris-HCl, pH 7.4, 10 mM MgCl2, 0.5 mM EDTA) was used. Compounds of invention were incubated with 5.5 nM [^3H]Lysergic acid diethylamide (LSD) for 120 min. at 25° C. Non-specific binding was estimated in the presence of 10 μM Serotonin (5-HT). Receptor proteins were filtered and washed, the filters were then counted to determine [^3H]LSD specifically bound. Compounds were screened at 1 μM or lower, using 1% DMSO as vehicle. Biochemical assay results are presented as the percent inhibition of specific binding in Table 4.

T3 sequence (P14416 whole entry): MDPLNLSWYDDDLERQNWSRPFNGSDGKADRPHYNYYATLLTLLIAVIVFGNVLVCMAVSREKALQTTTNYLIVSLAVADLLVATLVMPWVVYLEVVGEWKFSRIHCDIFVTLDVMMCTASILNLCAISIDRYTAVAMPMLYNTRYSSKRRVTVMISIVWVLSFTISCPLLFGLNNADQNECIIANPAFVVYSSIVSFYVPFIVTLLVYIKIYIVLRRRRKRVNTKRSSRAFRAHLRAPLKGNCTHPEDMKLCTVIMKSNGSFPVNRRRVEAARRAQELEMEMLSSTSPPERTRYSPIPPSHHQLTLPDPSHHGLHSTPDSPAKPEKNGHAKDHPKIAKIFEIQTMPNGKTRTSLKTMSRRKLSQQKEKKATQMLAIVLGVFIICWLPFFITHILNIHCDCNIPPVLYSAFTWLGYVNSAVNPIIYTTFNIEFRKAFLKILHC
T4 sequence (P34969 whole entry): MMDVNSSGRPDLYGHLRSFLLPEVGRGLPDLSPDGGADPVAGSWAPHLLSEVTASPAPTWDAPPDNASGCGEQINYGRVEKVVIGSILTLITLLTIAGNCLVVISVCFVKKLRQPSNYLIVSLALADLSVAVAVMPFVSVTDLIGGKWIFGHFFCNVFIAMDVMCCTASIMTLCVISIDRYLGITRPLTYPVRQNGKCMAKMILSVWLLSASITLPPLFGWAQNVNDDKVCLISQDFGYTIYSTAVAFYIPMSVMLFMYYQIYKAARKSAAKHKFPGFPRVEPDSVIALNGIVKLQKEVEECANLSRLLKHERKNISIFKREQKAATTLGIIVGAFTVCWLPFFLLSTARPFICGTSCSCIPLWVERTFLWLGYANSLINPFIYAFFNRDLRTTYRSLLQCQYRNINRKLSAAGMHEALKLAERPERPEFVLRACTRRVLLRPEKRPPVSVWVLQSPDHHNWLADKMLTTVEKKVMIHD

As to `Cc1cc2c3c(c1)c1c(n3CC(C)(c3ccncc3)OC(C)C2)CCN(C)C1` (centres unmarked) [Compound 165], the inhibition (as a rule, the relative decrease from the control value, in per cent) at 0.1 µM in assay [1] was 11%; in assay [2], 20%; in assay [4], -2%. Besides, in assay [3], the inhibition at 1 µM was found to be 10%.

Regarding `Cc1cc2c3c(c1)c1c(n3CC(c3ccc(F)cc3)C2)CCN(C)C1` (centres unmarked) [Compound 3], the inhibition at 1 µM in assay [3] stood at 96%; in assay [4] (compound at 1 μM, read-out: Serotonin (1 μM) 5-HT7, percentage inhibition of ligand binding), 53%.

`Cc1cc2c3c(c1)c1c(n3CC(C)(c3ccc(C)nc3)OC(C)C2)CCN(C)C1` (centres unmarked) [Compound 160]: the inhibition at 0.1 µM in assay [1] is -5%; in assay [2], 16%; in assay [4], 14%. Further, the inhibition at 1 µM in assay [3] was determined as 7%.

On to `Cc1cc2c3c(c1)c1c(n3C[C@](C)(c3ccncc3)O[C@H]2C)CCN(C)C1` [Compound 163], for which the values for the inhibition at 0.1 µM in assay [1], in assay [2] and in assay [4] were -17%, 12% and -3%, respectively. Besides, the inhibition at 1 µM in assay [3] worked out at 15%.

For `Cc1cc2c3c(c1)c1c(n3CC(C)(c3ccc(C)nc3)OC2C)CCN(C)C1` (centres unmarked) [Compound 164], in assay [1], the “Adrenergic (0.1 μM) a1A, percentage inhibition of ligand binding” value is on record as −7%. In addition, in assay [2], the “Adrenergic (0.1 μM) a2C, percentage inhibition of ligand binding” value was −4%. Moreover, the “Dopamine (1 μM) D2L, percentage inhibition of ligand binding” value in assay [3] is reported as 3%. Besides, the “Serotonin (0.1 μM) 5-HT7, percentage inhibition of ligand binding” value in assay [4] is −12%.

For `Cc1cc2c3c(c1)c1c(n3CC(C)(c3ccc(C)nc3)OC2C)CCN(C)C1` (centres unmarked) [Compound 161], the “Adrenergic (0.1 μM) a1A, percentage inhibition of ligand binding” value in assay [1] was −8%. Also, the “Adrenergic (0.1 μM) a2C, percentage inhibition of ligand binding” value in assay [2] came out at 3%. For the same compound, the “Dopamine (1 μM) D2L, percentage inhibition of ligand binding” value in assay [3] is 10%. Also, the “Serotonin (0.1 μM) 5-HT7, percentage inhibition of ligand binding” value in assay [4] is reported as −8%.

As to `Cc1cc2c3c(c1)c1c(n3C[C@@](C)(c3ccncc3)O[C@H]2C)CCN(C)C1` [Compound 162], the inhibition at 0.1 µM in assay [1] was -3%; in assay [2] it was 13%; in assay [4] it was 5%. Also, in assay [3], the inhibition at 1 µM stood at 11%.
